Experimental data taken from patent US7048943B2, “Carotenoid-loaded liposomes” (Yissum Research Development Company of the Hebrew …, priority 2001, dated 2006).
Converted amounts (≈) assume the structure as drawn.

Key:
[1] = tested on: Epidermal equivalents (normal, human-derived epidermal keratinocytes); test: Protection against UV induced loss of viability (LDH release); assay type: cell-based
Method: (§1) Cell Culture • Epidermal equivalents (4.0 cm^2) were purchased from SkinEthic (Nice, France). Each equivalent served as a multilayered model of the epidermis consisting of normal, human-derived epidermal keratinocytes. Equivalents were cultured in a defined hydrocortisone and phenol red free medium supplied from SkinEthic. Instruments • Kontron (Switzerland) HPLC system. 425 pump, 430 detector, 460 automatic injector and 450 data analysis system. Column: LiChroCART®250-4, RP-select B (5 μm), Merck catalog no. […]
(§2) Twenty four hours post irradiation, the culture medium was collected from the treated epidermal equivalents and evaluated for IL-1α release levels using a commercially available ELISA kit. Cell viability was determined immediately post irradiation using LDH leakage measurments.
(§3) Epidermal Equivalents were purchased from SkinEthic (Nice, France) and cultured in phenol free, hydrocortisone free media. […] Forty-eight hours post irradiation, the medium beneath each equivalent was collected and analyzed for secreted IL-1α by ELISA (Endogen). LDH level (Boehringer Mannheim) was measured immediately post irradiation and after 48 hours to determine the effect of treatment and UV exposure on cell viability. […]

[2] = tested on: Epidermal equivalents (normal, human-derived epidermal keratinocytes); test: Protection against UV induced IL-1α release; assay type: cell-based; conditions: at 0.01%, UV irradiation
Method: as §1, §2, §3

[3] = Partition of lycopene in tri-phase system (soya oil / water / egg PC SUV); assay type: physicochemical; conditions: for Kp Lip/Oil: partition coefficient liposome/oil, liposomes 10% by weight; for Liposome/oil: ratio of lycopene in liposomal phase to oil phase; for Insoluble lycopene / lycopene concentration, Liposomal phase / lycopene concentration, Oil phase: soya oil / water / egg PC SUV, highest lycopene level; for lycopene concentration, Liposomal phase / lycopene concentration, Oil phase: mixed 2 hours at room temperature
Method: The partition coefficient of lycopene in tri-phase systems was also evaluated. Tri-phase systems may serve for the determination of availability of the lycopene into biological membranes. The system used herein was composed from […]: soya oil in which the lycopene was present and water in which liposomes (10% by weight) in the form of small unilamellar vesicles (SUV) composed of pure egg phosphatidyl choline are present as the third phase.
The small unilamellar liposomes (SUV) composed of pure lipid (Ludwigshafen, Germany) egg phosphatidylcholine (egg PC) of an 80 nm were prepared and characterized as described by Haran et al. [Haran G. et al. Biochim. Biophys. Acta 1151:201–215 (1993)]. SUV egg PC size was ˜80 nm. The partition coefficient in the three phase system was performed at three different levels of lycopene—low, medium and high amounts, using crystalline lycopene (originated from fungi), 92% powder (LycoRed), 75% powder lycopene (LycoRed) and oleoresin (containing 6.06% by weight of lycopene). In case of the highest level, lycopene from tomato concentrate (containing 0.073% lycopene) was also evaluated.
Preparation of the three phase systems included the following steps; first, lycopene was dispersed in soya oil (4 ml) by ultrasonic irradiation in an ultrasonic bath (35 kHz, 285W). Then, the precipitate was removed, aliquots of the oil were diluted in isopropanol with ratio ranging from 1:10 to 1:100 and the concentration of lycopene in oil phase was determined.
Then, to soya oil saturated with lycopene (1.5 ml) egg PC SUV in water (1.5 ml) were added to form the three phase system. The system was then mixed for 2 hours at room temperature using a flask shaker (A5-6021, St. John Associate Inc.), after which aliquots of the oil phase and the liposomal aqueous phase were removed.
In particular, the aqueous phase was extracted using heptane into which more than 98% of the lycopene was extracted. This extract was evaporated to dryness and the residue was dissolved in 200 μl isopropanol and analyzed by HPLC to determine the amount of lycopene present in the liquid and oil phase.
The concentration of lycopene in the liposome phase was calculated based on the procedure of Samuni and Barenholz [Samuni A. M. and Barenholz Y, Biol. Med. 22:1165–1174 (1996); Barenholz Y. et al. M. Biophys. J. 59:110–124 (1991)]. The following Table 4 summarizes the results obtained.

[4] = Solubility of lycopene in organic solvents (saturation concentration, HPLC and absorbance at 472 nm)
Method: Lycopene Quantification—lycopene was analyzed for degradation and quantified by The HPLC buffer used comprised acetonitrile: methanol: methylene chloride: hexane and a ratio of 850:100:25:25 (all HPLC grade, Hoffman La Roche). Quantification was based on a standard curve obtained for lycopene (LycoRed standard. The amount of lycopene was also determined by absorbance at 472 nm.
All samples were diluted with ethanol before measurement. The saturation concentrations of the lycopene were determined by BPLC and by the use of a spectrophotometer (absorbance at 472 nm, where the area under the peak was measured). The saturation limit was defined as the concentration where a precipitate first appears. The concentration of lycopene at saturation was determined after removal of precipitate by high speed centrifugation from the absorbance at 472 nm (the λmax for the ‘red’ form of lycopene) using double beam UVikon 860 (Kontron, Switzerland) spectrometer.
Both types of lycopene were in a powder form before dissolving in cyclohexane. […] These measures were taken after a year and a half of storage at −20° C.

[5] = Entrapment of lycopene in MLV liposomes; assay type: physicochemical; conditions: liposomes composed of lipid/lycopene 10:1
Method: Method of Preparation—The phospholipids were dissolved in cyclohexane at a w/v ratio of 1 mg phospholipid per 10 ml cyclohexane. The dissolving required heating for several seconds at 60° C. and/or sonication for up to 3 minutes. Lycopene was added as powder to the solution, which was then vortexed. The resulting solution was lyophilized overnight and kept at −20° C. until use. To form multilamellar liposome (MLV), 2 ml of 0.9% NaCl were added to the lyophilizate followed by vortex to yield MLV encapsulated lycopene.
Method of Preparation—Lycopene was dissolved in cyclohexane at a w/v ratio of 1 mg of lycopene per 2 ml of cyclohexane. The dissolving required heating for several seconds at 60° C. and sonication for up to 3 minutes until all the lycopene was dissolved. The phospholipids were added as powder to the solution and the mixture was mixed with vortex. The solution was lyophilized overnight in bottles and closed in vacuum. The lyophilized bottles were kept at −20° C. until use.
To form MLV encapsulated lycopene, 2 ml of 0.9% NaCl were added followed by vortex. The percentage of entrapment of lycopene in the formulation was 85.31%.
In general, the population of the liposomes was heterogeneous. […] The 75% lycopene entrapment in liposomes composed of lipid/lycopene 10:1 was measured, wherein 17.5% of the lycopene was entrapped in the MLV. […]

CD-1 Mice = test: Oxazolone induced ear edema; assay type: in vivo; conditions: topical on left ear 1 hour after 2% oxazolone challenge, ear punch weight after 24 hours, versus vehicle group
Method: CD-1 Mice were induced with 3% oxazolone (Sigma) (30 mg/ml) made up in corn oil: acetone on a shaved abdomen. Five days later the mice were challenged with a 2% oxazolone (20 (mg/ml) in acetone on the left ear, right ear was untreated. One hour after challenging, the formulations examined (E1–E8) in a 70% EtOH/30% propylene glycol vehicle were applied onto the left ear. After 24 hours the mice were sacrificed and 7 mm ear punches were taken. The ear punches were placed on a scale and the difference between the treated and untreated ears was measured.
The percent inhibition was calculated by comparing the means of each group to the vehicle group. The positive control was hydrocortisone.

For `O=C1O[C@H]([C@@H](O)CO)C(O)=C1O` [Ascorbic acid, ascorbic acid], the “LDH Release, protection, First assay” value ([1]; at 0.01%, UV irradiation) was 100% protection with 0.01% and the “IL-1α release, protection, First assay” value [2] was 100% protection with 0.01%.

With `CC(C)=CCC/C(C)=C/C=C/C(C)=C/C=C/C(C)=C/C=C/C=C(C)/C=C/C=C(C)/C=C/C=C(\C)CCC=C(C)C` [lycopene] the “solubility in an aqueous phase” value ([3]; conclusion from tri-phase system) was “very low, if any”.

In the case of `CC(C)=CCC/C(C)=C/C=C/C(C)=C/C=C/C(C)=C/C=C/C=C(C)/C=C/C=C(C)/C=C/C=C(\C)CCC=C(C)C` [lycopene 75%, lycopene], the “Kp Lip/Oil” value ([3]; listed as Powder 75%) is reported as 0.4972, the Liposome/oil ([3]; listed as Powder 75%) is reported as 0.0497 and the Insoluble lycopene ([3]; listed as Powder 75%) is reported as 5.7899 mμ. For the same compound, the “lycopene concentration, Liposomal phase” value ([3]; listed as Powder 75%) was 0.0062 mμ, the “lycopene concentration, Oil phase” value ([3]; listed as Powder 75%) was 0.1239 mμ and the “maximal solubility in cyclohexane” value ([4]; after a year and a half of storage at −20° C.) was 1960 µM. The “Concentration (mM)/HPLC” value ([4]; saturation in Cyclohexane) was 0.22 mM, the “Concentration (mM)/HPLC” value ([4]; saturation in Soy oil) was 0.14 mM and the “Concentration (mM)/HPLC” value ([4]; saturation in ethanol) was 0.059 mM. The “Concentration (mM)/HPLC” value ([4]; saturation in i-propanol) was 0.037 mM, the “Concentration (mM)/HPLC” value ([4]; saturation in n-hexane) was 0.18 mM and the “Concentration (mM)/HPLC” value ([4]; saturation in t-butanol) was 0.016 mM. The “lycopene entrapped in the MLV” value [5] was 17.5%.

In the case of `O=C(O)CCCC[C@@H]1CCSS1` (racemic) [Lipoic Acid, lipoic acid], the “Loss of viability (LDH), LDH release, protection” value ([1]; at 1%, UV irradiation (Table 7C)) is reported as 100% protection with 1%.

With `C[C@]12CCC(=O)C=C1CC[C@@H]1[C@@H]2[C@@H](O)C[C@@]2(C)[C@H]1CC[C@]2(O)C(=O)CO` [Hydrocortisone, hydrocortisone] the “% inhibition” value (CD-1 Mice) was 92.6%.

In the case of `CC(C)=CCC/C(C)=C/C=C/C(C)=C/C=C/C(C)=C/C=C/C=C(C)/C=C/C=C(C)/C=C/C=C(\C)CCC=C(C)C` [Power 92% Powder, lycopene], the “Kp Lip/Oil” value [3] is reported as 0.4141, the Liposome/oil [3] is reported as 0.0414 and the Insoluble lycopene [3] is reported as 6.7084 mμ. For the same compound, the “lycopene concentration, Liposomal phase” value [3] was 0.0020 mμ and the “lycopene concentration, Oil phase” value [3] was 0.0495 mμ.

In the case of `CC(C)=CCC/C(C)=C/C=C/C(C)=C/C=C/C(C)=C/C=C/C=C(C)/C=C/C=C(C)/C=C/C=C(\C)CCC=C(C)C` [Crystalline, lycopene, reference compound], the “Kp Lip/Oil” value [3] is reported as 0.00952, the Liposome/oil [3] is reported as 0.00095 and the Insoluble lycopene [3] is reported as 6.9740 mμ. The “lycopene concentration, Liposomal phase” value [3] was 0.0001 mμ and the “lycopene concentration, Oil phase” value [3] was 0.1458 mμ.

Work on `CC(C)=CCC/C(C)=C/C=C/C(C)=C/C=C/C(C)=C/C=C/C=C(C)/C=C/C=C(C)/C=C/C=C(\C)CCC=C(C)C` [lycopene 95%, lycopene] yielded a solubility ([4]; cyclohexane, organic solvent or mixture, thermodynamic from solid, maximal solubility in cyclohexane, after a year and a half of storage at −20° C.) of 2650 µM (≈ 1420 µg/mL).
